Data on two molecules can be found in patent US8343549B2, “Therapeutic uses of Dunaliella powder” (Nikken Sohonsha Corporation, priority 2003, dated 2013).

One assay concerns patients. As to conditions: patients treated with gemfibrozil; cited from earlier work.
In another assay the test system is male LDL R-\-mice. As to the kind of experiment: Western diet-induced diabetes in LDL R-/- mice. As to conditions: LDL R-/- mice on Western diet, 4 weeks treatment. In kind it is in vivo. An excerpt:
To test the effect of Dunaliella on Diabetes, male LDL R-\-mice (n=30) were fed a Western diet (42% calories from fat) in order to induce Diabetes. After 4 weeks of Western diet feeding, the mice were divided into 6 groups (n=5 in each group) and were fed Western diet fortified by rosiglitazone (0.02% of the diet, weight/weight), crude Dunaliella powder (8% of the diet, weight/weight) or 9-cis retinoic acid (24 nmol/mouse×day). The treatments lasted 4 weeks.
The 8% Dunaliella powder provided ˜1.5 nmol 9-cis retinoic acid/mouse×day. This calculated amount is based on conversion of β-carotene to vitamin A (27 molecules provide 1 molecule of vitamin A and on the ratio of retinoic acid to vitamin A which is about 1 molecule of retinoic acid to 300 molecules of retinol, retinal and retinoic acid).
The following groups were included:
1. Control, Western diet alone. (Control)
2. 9-cis retinoic acid (RA)
4. Dunaliella powder 8% (Dun)

Take `Cc1ccc(C)c(OCCCC(C)(C)C(=O)O)c1` [gemfibrozil]: in the assay on patients, the “reduction of the rate of coronary events” value is 22%. Take `CC1=C(/C=C/C(C)=C\C=C\C(C)=C\C(=O)O)C(C)(C)CCC1` [9-cis retinoic acid]: in the assay with male LDL R-\-mice, the plasma glucose levels entry is “did not affect” and the plasma insulin levels result is reported as “did not affect”.
